Measured values reported in US20170129903A1, “COMPOUNDS COMPRISING 1,1a,2,5a-TETRAHYDROSPIRO[INDOLE-3,2a-PYRROLE]-2,5a-DIONE SYSTEM AS INHIBITORS P53-MDM2 PROTEIN-PROTEIN INTERACTION” (ADAMED SP. Z O.O., priority 2014, published 2017).

Assays:
[1] = target: T1, p53-Mdm2 interaction (N-terminal domain of Mdm2 protein, amino acids 1-111) (Homo sapiens, UniProt Q00987); assay: Fluorescence polarization (FP) binding assay of p53-Mdm2 interaction; conditions: for Ki: FP assay, 130 nM Mdm2, FAM-labelled p53 peptide, Ki transformed from IC50 using Kenakin equation; for times more potent than the corresponding S/R (racemic) mixture: enantiopure S isomers vs racemic Compounds 71, 93 and 72, respectively
T1 construct: N-terminal domain of Mdm2 protein (amino acids 1-111)
T1 sequence (Q00987 1-111): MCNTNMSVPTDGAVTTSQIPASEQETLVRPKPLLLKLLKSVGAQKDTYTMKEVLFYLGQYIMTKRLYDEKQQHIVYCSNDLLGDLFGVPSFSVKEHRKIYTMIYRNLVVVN
In short: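 N-terminal Mdm2 (aa 1-111) at 130 nM preincubated 15 min with compound (5% DMSO) in PBS, 0.1% CHAPS, 5 mM DTT, then […] FAM-labelled p53 peptide added. Polarization read after 90 min at room temperature (ex 470/em 520 nm). IC50 converted to Ki by Kenakin equation.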

[2] = tested on: SJSA-1 osteosarcoma cell line; assay: MTT cell viability assay; assay type: cell-based; conditions: 72 h incubation, average of 2-5 experiments
Protocol: The effect of the invented p53-Mdm2 inhibitors on cell viability has been assessed using MTT assay. It is a colorimetric assay that measures conversion of tetrazolium ring of the soluble yellow dye (MTT) into insoluble purple formazan. This process is catalysed solely in mitochondrial dehydrogenases of living cells.
Cells were seeded on 96-well plates and then treated with successive dilutions of tested compounds. After 72 h incubation, MTT was added to the final concentration 0.5 mg/ml. The cells were further incubated for the next 4 h. Then the solution was drained and the remaining formazan crystals were dissolved in 100 μl DMSO. […] All the MTT experiments were independently repeated 2-5 times. Dose-dependent binding curves and IC50 values were calculated using GraphPad Prism 5.

| SMILES | Ki [1] [nM] | IC50 ([2]; Homo sapiens, SJSA-1, 72 h) [µM] | times more potent than the corresponding S/R (racemic) mixture [1] | IC50 [2] [µM] |
| --- | --- | --- | --- | --- |
| Cc1ccc(Cl)cc1N1C(=O)c2cn(-c3cccc4c3OCO4)c(C(C)C)c2C12C(=O)Nc1cc(Cl)ccc12 (centres unmarked) [Compound 94, 5′-(2H-1,3-benzodioxol-4-yl)-6-chloro-2′-(5-chloro-2-methylphenyl)-6′-(propan-2-yl)-1,2,3′,5′-tetrahydro-2′H-spiro[indole-3,1′-pyrrolo[3,4-c]pyrrole]-2,3′-dione] | 9.6 | 0.93 | – | – |
| COc1ccc(C(N)=O)cc1-n1cc2c(c1C(C)C)[C@@]1(C(=O)Nc3cc(Cl)ccc31)N(c1cc(Cl)ccc1C)C2=O [Compound 110, 3-[(3S)-6-chloro-2′-(5-chloro-2-methylphenyl)-2,3′-dioxo-6′-(propan-2-yl)-1,2,3′,5′-tetrahydro-2′H-spiro[indole-3,1′-pyrrolo[3,4-c]pyrrole]-5′-yl]-4-methoxybenzamide] | 1.7 | 0.35 | – | – |
| COc1ccc(-n2nc3c(c2C(C)C)C2(C(=O)Nc4cc(Cl)ccc42)N(c2cc(Cl)ccc2C)C3=O)c(OC)n1 (centres unmarked) [Compound 114, 6-chloro-5′-(5-chloro-2-methylphenyl)-2′-(2,6-dimethoxypyridin-3-yl)-3′-(propan-2-yl)-1,2,5′,6′-tetrahydro-2′H-spiro[indole-3,4′-pyrrolo[3,4-c]pyrazole]-2,6′-dione] | 3.3 | 0.29 | – | – |
| Cc1ncc(Cl)cc1N1C(=O)c2n[nH]c(C(C)C)c2C12C(=O)Nc1cc(Cl)ccc12 (centres unmarked) [Compound 84, 6-chloro-5′-(5-chloro-2-methylpyridin-3-yl)-3′-(propan-2-yl)-1,2,5′,6′-tetrahydro-2′H-spiro[indole-3,4′-pyrrolo[3,4-c]pyrazole]-2,6′-dione] | 152 | 46.1 | – | – |
| COc1ccc(N)cc1-n1cc2c(c1C(C)C)[C@@]1(C(=O)Nc3cc(Cl)ccc31)N(c1cc(Cl)ccc1C)C2=O [Compound 109, (3S)-5′-(5-amino-2-methoxyphenyl)-6-chloro-2′-(5-chloro-2-methylphenyl)-6′-(propan-2-yl)-1,2,3′,5′-tetrahydro-2′H-spiro[indole-3,1′-pyrrolo[3,4-c]pyrrole]-2,3′-dione] | 1.3 | 0.07 | – | – |
| COc1ccc(Cl)cc1N1C(=O)c2nn(-c3ccccc3OC)c(C(C)C)c2C12C(=O)Nc1cc(Cl)ccc12 (centres unmarked) [Compound 30, 6-chloro-5′-(5-chloro-2-methoxyphenyl)-2′-(2-methoxyphenyl)-3′-(propan-2-yl)-1,2,5′,6′-tetrahydro-2′H-spiro[indole-3,4′-pyrrolo[3,4-c]pyrazole]-2,6′-dione] | 8.2 | 1.36 | – | – |
| COc1ccc(NC(C)=O)cc1-n1cc2c(c1C(C)C)C1(C(=O)Nc3cc(Cl)ccc31)N(c1cc(Cl)ccc1C)C2=O (centres unmarked) [Compound 97, N-{3-[6-chloro-2′-(5-chloro-2-methylphenyl)-2,3′-dioxo-6′-(propan-2-yl)-1,2,3′,5′-tetrahydro-2′H-spiro[indole-3,1′-pyrrolo[3,4-c]pyrrole]-5′-yl]-4-methoxyphenyl}acetamide] | 3.4 | 0.3 | – | – |
| COc1ccc(S(=O)(=O)N2CCOCC2)cc1-n1cc2c(c1C(C)C)C1(C(=O)Nc3cc(Cl)ccc31)N(c1cc(Cl)ccc1C)C2=O (centres unmarked) [Compound 112, 6-chloro-2′-(5-chloro-2-methylphenyl)-5′-[2-methoxy-5-(morpholine-4-sulfonyl)phenyl]-6′-(propan-2-yl)-1,2,3′,5′-tetrahydro-2′H-spiro[indole-3,1′-pyrrolo [3,4-c]pyrrole]-2,3′-dione] | 3.5 | 0.15 | – | – |
| O=C1C(O)=C(c2ccccc2)C2(C(=O)Nc3cc(Cl)ccc32)N1c1cccc(Cl)c1 (centres unmarked) [Compound 41, 6-chloro-1′-(3-chlorophenyl)-4′-hydroxy-3′-phenyl-1,1′,2,5′-tetrahydrospiro[indole-3,2′-pyrrole]-2,5′-dione] | 24 | 21.4 | – | – |
| CC(C)c1[nH]nc2c1C1(C(=O)Nc3cc(Cl)ccc31)N(c1cc(Cl)ccc1O)C2=O (centres unmarked) [Compound 24, 6-chloro-5′-(5-chloro-2-hydroxyphenyl)-3′-(propan-2-yl)-1,2,5′,6′-tetrahydro-2′H-spiro[indole-3,4′-pyrrolo[3,4-c]pyrazole]-2,6′-dione] | 54 | 33.5 | – | – |
| CSc1ccccc1-n1nc2c(c1C(C)C)C1(C(=O)Nc3cc(Cl)ccc31)N(c1cc(Cl)ccc1C)C2=O (centres unmarked) [Compound 77, 6-chloro-5′-(5-chloro-2-methylphenyl)-2′-[2-(methylsulfanyl)phenyl]-3′-(propan-2-yl)-1,2,5′,6′-tetrahydro-2′H-spiro[indole-3,4′-pyrrolo[3,4-c]pyrazole]-2,6′-dione] | 30 | 8.57 | – | – |
| COc1ccc(C(N)=O)cc1-n1cc2c(c1C(C)C)C1(C(=O)Nc3cc(Cl)ccc31)N(c1cc(Cl)ccc1C)C2=O (centres unmarked) [Compound 95, 3-[6-chloro-2′-(5-chloro-2-methylphenyl)-2,3′-dioxo-6′-(propan-2-yl)-1,2,3′,5′-tetrahydro-2′H-spiro[indole-3,1′-pyrrolo [3,4-c]pyrrole]-5′-yl]-4-methoxybenzamide] | 1.8 | 0.3 | – | – |
| COC(=O)c1ccc(OC)c(-n2nc3c(c2C(C)C)C2(C(=O)Nc4cc(Cl)ccc42)N(c2cc(Cl)ccc2C)C3=O)c1 (centres unmarked) [Compound 78, methyl 3-[6-chloro-5′-(5-chloro-2-methylphenyl)-2,6′-dioxo-3′-(propan-2-yl)-1,2,5′,6′-tetrahydro-2′H-spiro[indole-3,4′-pyrrolo[3,4-c]pyrazol]-2′-yl]-4-methoxybenzoate] | 3.4 | 0.36 | – | – |

The remaining lines, values ahead:

| Ki [1] [nM] | IC50 ([2]; Homo sapiens, SJSA-1, 72 h) [µM] | times more potent than the corresponding S/R (racemic) mixture [1] | IC50 [2] [µM] | SMILES |
| --- | --- | --- | --- | --- |
| 11 | 2.23 | – | – | COC(=O)/C=C/COc1ccc(Cl)cc1N1C(=O)c2nn(-c3ccccc3OC)c(C(C)C)c2C12C(=O)Nc1cc(Cl)ccc12 (centres unmarked) [Compound 62, methyl (2E)-4-{4-chloro-2-[6-chloro-2′-(2-methoxyphenyl)-2,6′-dioxo-3′-(propan-2-yl)-1,2,5′,6′-tetrahydro-2′H-spiro[indole-3,4′-pyrrolo[3,4-c]pyrazole]-5′-yl]phenoxy}but-2-enoate] |
| 2.2 | – | about 2 times | 0.8 | COc1ccccc1-n1nc2c(c1C(C)C)[C@@]1(C(=O)Nc3cc(Cl)ccc31)N(c1cncc(Cl)c1)C2=O [Compound 81, (3S)-6-chloro-5′-(5-chloropyridin-3-yl)-2′-(2-methoxyphenyl)-3′-(propan-2-yl)-1,2,5′,6′-tetrahydro-2′H-spiro-[indole-3,4′-pyrrolo[3,4-c]pyrazole]-2,6′-dione] |
| 2.9 | 0.66 | – | – | COc1ccccc1-n1cc2c(c1C(C)C)[C@@]1(C(=O)Nc3cc(Cl)ccc31)N(c1cc(Cl)ccc1NS(C)(=O)=O)C2=O [Compound 102, N-{4-chloro-2-[(3S)-6-chloro-5′-(2-methoxy-phenyl)-2,3′-dioxo-6′-(propan-2-yl)-1,2,3′,5′-tetrahydro-2′H-spiro[indole-3,1′-pyrrolo[3,4-c]pyrrole]-2′-yl]phenyl} methanesulfonamide] |
| 1.9 | 0.28 | about 2 times | – | COc1ccccc1-n1nc2c(c1C(C)C)[C@@]1(C(=O)Nc3cc(Cl)ccc31)N(c1cc(Cl)cnc1C)C2=O [Compound 80, (3S)-6-chloro-5′-(5-chloro-2-methyl-pyridin-3-yl)-2′-(2-methoxyphenyl)-3′-(propan-2-yl)-1,2,5′,6′-tetrahydro-2′H-spiro [indole-3,4′-pyrrolo[3,4-c]pyrazole]-2,6′-dione] |
| 4.2 | 0.78 | – | – | CCOC(=O)c1ccc(Cl)cc1N1C(=O)c2cn(-c3ccccc3OC)c(C(C)C)c2C12C(=O)Nc1cc(Cl)ccc12 (centres unmarked) [Compound 106, ethyl 4-chloro-2-[6-chloro-5′-(2-methoxyphenyl)-2,3′-dioxo-6′-(propan-2-yl)-1,2,3′,5′-tetrahydro-2′H-spiro[indole-3,1′-pyrrolo[3,4-c]pyrrole]-2′-yl]benzoate] |
| 3.4 | 0.69 | – | – | COc1sccc1-n1cc2c(c1C(C)C)C1(C(=O)Nc3cc(Cl)ccc31)N(c1cc(Cl)ccc1C)C2=O (centres unmarked) [Compound 113, 6-chloro-2′-(5-chloro-2-methylphenyl)-5′-(2-methoxythiophen-3-yl)-6′-(propan-2-yl)-1,2,3′,5′-tetrahydro-2′H-spiro[indole-3,1′-pyrrolo[3,4-c]pyrrole]-2,3′-dione] |
| 6.6 | 1.07 | – | – | COc1ccccc1-n1cc2c(c1C(C)C)C1(C(=O)Nc3cc(Cl)ccc31)N(c1cc(Cl)ccc1NS(C)(=O)=O)C2=O (centres unmarked) [Compound 92, N-{4-chloro-2-[6-chloro-5′-(2-methoxy-phenyl)-2,3′-dioxo-6′-(propan-2-yl)-1,2,3′,5′-tetrahydro-2′H-spiro[indole-3,1′-pyrrolo[3,4-c]pyrrole]-2′-yl]phenyl} methanesulfonamide] |
| 178 | 37.5 | – | – | COc1ccc(CSC2=C(O)C(=O)N(c3cccc(Cl)c3)C23C(=O)Nc2cc(Cl)ccc23)cc1 (centres unmarked) [Compound 59, 6-chloro-1′-(3-chlorophenyl)-4′-hydroxy-3′-{[(4-methoxyphenyl)methyl]sulfanyl}-1,1′,2,5′-tetrahydrospiro[indole-3,2′-pyrrole]-2,5′-dione] |
